Marks after values point to notes of the source that are not given here.
What was measured:
DPPH reduction assay = conditions: for IC50: DPPH reduction, 60 min incubation
Experimental: The reduction of the stable DPPH free radical was measured by monitoring the change in absorbance at 517 nm. These experiments were made in a 96-well microplate. […] In each experiment, the compounds were tested in the concentration range 0.7812 μM to 50 μM, in triplicate. For each sample concentration, a blank with ethanol 70%, instead of DPPH was made. Ascorbic acid was used as a positive control and tested in the same conditions. Blanks containing only ethanol 70% and control containing DPPH in ethanol 70% (190 μM) were used. The absorbance at 517 nm was measured in a microplate reader BioTek^TM Synergy HT (BioTeck Instruments, Vermont, USA) after 60 min of incubation in the dark with a temperature-controlled holder at 25 °C. The microplate was shaken before each reading.
The scavenging percentage of DPPH was calculated using the following equation:(1) %scavenging of DPPH=100×(1−Abssample+DPPH−Abssample blank/AbsDPPH−AbsEtOH)
The IC50 value for each sample and for the ascorbic acid was obtained by linear regression.

HaCaT cell = system: HaCaT cell; design: method as in doi:10.1016/j.arabjc.2017.01.006, PMID 31167479; conditions: cited from earlier work
Stability in pH buffers = assay type: physicochemical; conditions: pH buffers 2-8, 21 days, room temperature, 200 µM
Experimental: All the solutions were prepared following Portuguese Pharmacopeia 9.0 specifications (F.P. (VIII) 2008). A solution at 10 mM in DMSO of each compound was prepared. One hundred microliters of antioxidant solution were diluted to 5 mL of the different buffered pH solutions, prepared in triplicate. Their absorbance measured by UV/Vis spectrophotometry in the wavelength range between 200 and 500 nm at time intervals of 0, 1, and 2 h and 1, 8, 15, and 21 d at room temperature. Each pH buffer solution was used as a compensation solution.

collagenase = assay: Collagenase inhibition assay; assay type: biochemical
Experimental: An adaptation of the method of Moore and Stein [40] with modifications by Mandl et al. was used to determine anticollagenase activity. To 2 mL test tubes was added: 25 μL of collagenase solution (0.8 U/mL), 25 μL TES buffer (50 mM) with 0.36 mM calcium chloride (pH 7.4) and 50 μL of test sample or the reference compound EDTA (with concentrations ranging between 9.4 and 150 μM). The tubes were incubated in a water bath at 37 °C for 20 min. Thereafter, 50 μL FALGPA (1 mM) solution was added to the tubes and incubated further for 60 min at 37 °C. To all tubes, 200 μL of a solution containing equal volumes of a 1.6 mg/mLTin chloride (II) solution in 200 mM citrate buffer (pH 5) and 50 mg/mL ninhydrin solution in DMSO was added. All tubes were placed in a water bath (100 °C) for 5 min and left to cool to room temperature before adding 200 μL of 50% isopropanol to each tube. Contents in the tubes were then transferred to respective wells in 96-well plates.

[1] = Metal-chelating effect by UV/Vis, CuCl2; assay type: physicochemical; conditions: methanolic solution
Experimental: (§1) The ultraviolet/visible (UV/Vis) spectra were recorded in methanol using a path length of 1 cm, at room temperature on a Varian CARY100 spectrophotometer (Agilent Technologies, Santa Clara, California, United States) from a range of 200 nm to 500 nm (software CaryWin UV, v. 3.0). The metal-chelating effect was evaluated by described procedures with stock solutions (1.0 × 10^−4 M) in methanol. Iron (III) and copper (II) solutions were prepared in a concentration of 1.0 × 10^−3 M from FeCl3 and CuCl2 in deionized water.

hyaluronidase = system: hyaluronidase
Experimental: The methods described by Ndlovu et al. and Zhou et al. were applied for the hyaluronidase inhibition assay. Into 2 mL test tubes was placed: 50 μL of calcium chloride (12.5 mM), 50 μL of test samples or sodium aurothiomalate diluted in 0.1 M acetate buffer; pH 3.5 (with concentrations ranging between 9.4 and 150 μM), and 25 μL hyaluronidase (0.5 mg/mL). The tubes were incubated in a water bath (37 °C; 20 min) after which 50 μL of the substrate hyaluronic acid (0.25 mg/mL in 0.1 M acetate buffer; pH 3.5) was added and the tubes incubated for further 40 min. Twenty-five microliters of KBO2 • 4 H2O (0.8 M) was added to all tubes which were placed in a water bath (100 °C) for 3 min, left to cool to room temperature, and 800 μL of DMAB (4 g DMAB in 40 mL acetic acid and 5 mL 10 N HCl) was added. The tubes were then incubated for 20 min and the contents transferred to respective wells in a 96-well plate. Absorbance was detected at 585 nm in a Bio-Rad Model 680 Microplate Reader (Bio-Rad Laboratories, Inc., Hercules, CA, USA). Percentage of hyaluronidase inhibition was calculated as:(3) % hyaluronidase inhibition =Abscontrol−Abssample/Abscontrol×100 where Abscontrol is the absorbance of buffer + hyaluronidase; Abssample is the absorbance of buffer + hyaluronidase + sample/standard.

HaCaT cells = assay: Phototoxicity evaluation, HaCaT NRU assay; assay type: cell-based, human
Experimental: The HaCaT cells were maintained at 37 °C in a humidified atmosphere of 95% air and 5% CO2 in the incubator in dulbecco’s modified eagle’s medium (DMEM) with 10% fetal bovine serum (FBS) and 1% antibiotics. Using an inverted microscope, cell confluence was observed and if the cells reached 70–80% confluence, subculture was done to prevent cell death. For this purpose, the culture medium was aspirated and the cells were washed with dulbecco’s phosphate buffered saline (DPBS), 2 mL of trypsin-EDTA were added and incubated for 5–8 min at 37 °C in a 5% CO2 atmosphere. After cell detaching, medium was added in order to block the trypsin action and cell suspension was centrifuged at 416 g for 5 min. The supernatant was discarded, the pellet suspended in culture medium, and cells were counted. For cell counting: 50 μL of cell suspension were added to 50 μL of Trypan Blue vital dye […], resuspended, placed in a Neubauer chamber (Hirschmann, Germany) and the viable cells were counted. For cell freezing, DMSO (5% v/v) was used as a cryopreservative to prevent the formation of crystals during the storage phase.
HaCaT cells were seeded onto 96-well tissue culture plates (Orange Scientific, Braine-l’Alleud, Belgium) at a 2 × 10^4 cells/well density and incubated at 37 °C in a 5% CO2 atmosphere for 24 h. […] In this last step, the absorbance was measured at 540 nm. […]

[2] = UV/Vis absorption spectra; assay type: physicochemical; conditions: UVB range 280–320 nm
Experimental: as §1

[3] = Metal-chelating effect by UV/Vis, FeCl3; assay type: physicochemical; conditions: methanolic solution
Experimental: as §1

[4] = Solubility in ethanol 70%; assay type: physicochemical

Row | solubility [4] | Structure (SMILES) | IC50 (DPPH reduction assay) [µM] | decrease in HaCaT cell viability in the neutral red assay (HaCaT cell) [%] | cytotoxic effect (HaCaT cell; up to 50 µM, MTT, neutral red, Alamar Blue, Trypan Blue assays) | pH stability (Stability in pH buffers) | Collagenase % Inhibition (150 µM) (collagenase) | change of UV/Vis spectrum on sequential additions of CuCl2 [1] | Hyaluronidase % Inhibition (150 μM) (hyaluronidase) | cytotoxicity to HaCaT cells (HaCaT cells; 12.5-200 µM, with and without UVA irradiation, NRU) | phototoxicity (HaCaT cells; up to 200 µM, HaCaT NRU assay) | capacity to absorb UV radiation [2] | change of UV/Vis spectrum on sequential additions of FeCl3 [3] | maximum reduction activity (DPPH reduction assay; DPPH, IC50 not determinable, probably due to solubility issues)
1 |  | O=C1O[C@H]([C@@H](O)CO)C(O)=C1O [Ascorbic Acid, Ascorbic acid, reference compound] | 40 ± 0.8 |  |  |  |  |  |  |  |  |  |  | 
2 |  | O=c1c2ccccc2oc2ccc(O)c(O)c12 [Compound 1, 1,2-dihydroxy-9H-xanthen-9-one] | 28.4 ± 0.2 | 83 | did not promote a significant cytotoxic effect | more stable in the pH range that is closest to the pH of the skin | 35.77 ± 1.82 ^a % | bathochromic shifts | n.a. (Not active (0% inhibition)) | not cytotoxic | nonphototoxic | high absorbance in the UVB range | bathochromic shifts | 
3 |  | Cc1cc(O)c(O)c2oc3ccccc3c(=O)c12 [Compound 2, 3,4-dihydroxy-1-methyl-9H-xanthen-9-one] | 31.2 ± 4.8 |  |  | a degradation of the compound for the range of pH tested overtime is observed | 26.83 ± 1.45 ^b % | no effect was observed | n.a. (Not active (0% inhibition)) |  |  | high absorbance in the UVB range | bathochromic shifts were observed | 
4 |  | Cc1cc(O)c(O)c2oc3cc(O)ccc3c(=O)c12 [Compound 3, 3,4,6-trihydroxy-1-methyl-9H-xanthen-9-one] | 47.3 ± 0.4 |  |  |  |  | no effect was observed | n.a. (Not active (0% inhibition)) |  |  | high absorbance in the UVB range | bathochromic shifts were observed | 
5 | low solubility | COc1cc(O)c2c(=O)c3ccccc3oc2c1O [Compound 4, 1,4-dihydroxy-3-methoxy-9H-xanthen-9-one] |  |  |  |  |  |  |  |  |  |  |  | lower than 50%

From publication PMC7356587, “Efficacy, Stability, and Safety Evaluation of New Polyphenolic Xanthones Towards Identification of Bioactive Compounds to Fight Skin Photoaging” (Molecules, 2020)
